Results reported in US4695648A, “Novel arylacetic acid derivatives” (Pharmacia AB, priority 1984, dated 1987).

Molecular target: T1, 15-hydroxy-prostaglandin dehydrogenase (PGDH) (Homo sapiens, UniProt P15428)
T1 construct: cell-free preparations of human placenta (containing PGDH); from tissue; host or cells: human placenta, cell-free preparation
T1 sequence (P15428 1-266): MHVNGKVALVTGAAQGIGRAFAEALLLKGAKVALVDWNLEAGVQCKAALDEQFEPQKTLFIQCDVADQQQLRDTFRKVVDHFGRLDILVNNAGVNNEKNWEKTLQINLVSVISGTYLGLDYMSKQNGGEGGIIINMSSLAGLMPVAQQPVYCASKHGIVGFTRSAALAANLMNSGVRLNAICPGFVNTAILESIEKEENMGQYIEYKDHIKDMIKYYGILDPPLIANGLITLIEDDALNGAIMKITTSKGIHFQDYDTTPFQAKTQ
Assay: Inhibition of 15-Hydroxy Prostaglandin Dehydrogenase (in vitro, cell-free preparations of human placenta, radioactive PGF2 degradation)
Format: biochemical
Settings: 50% inhibition of degradation of radioactive PGF2 vs controls without inhibitor
Description: Radioactive prostaglandin F2 (PGF2 ) is incubated with cell-free preparations of human placenta (containing PGDH) as desribed by Hoult and Moore, Brithish Journal of Pharmacology Vol. 61 (1977), p. 615. After a suitable incubation period the prostaglandins are extracted and separated chromatographically. The amount of unchanged PGF2 is then compared with the amount of metabolites. The inhibitory effect is evaluated by measurement of the effect in the presence of different amounts of added inhibitor and determination of the concentration (IC50 ) at which 50% inhibition of degradation has been obtained as compared to controls run without inhibitor additions. Very good inhibitors are considered to be those that inhibit PGDH by 50% at a concentration of 10 μM or less. Good inhibitors are considered to be those that inhibit at a concentration of between 10 and 100 μM. Also where a compound has to be classified as less good this will often be compensated in actual practice by other valuable properties, such as for instance a low toxicity or particularly suitable pharmacokinetic properties.
The Table below sets forth IC50 values for a number of compounds according to the invention. For comparison the Table also gives the IC50 value of 5-phenylazo-2-hydroxybenzeneacetic acid which is a known effective PGDH inhibitor described in EP,-A-No. 21229.

Compound | IC50
O=C(O)Cc1cc(N=Nc2ccccc2)ccc1O [5-phenylazo-2-hydroxybenzeneacetic acid, reference compound] | 12000 nM
O=C(O)Cc1cc(C(=O)c2ccccc2)ccc1O [Example 1, 5-Benzoyl-2-hydroxy-benzeneacetic acid] | 1400 nM
Cc1cc(C)cc(C(=O)c2ccc(O)c(CC(=O)O)c2)c1 [Example 3, 5-(3,5-Dimethyl-benzoyl)-2-hydroxy-benzeneacetic acid] | 22000 nM
O=C(O)Cc1cc(C=Cc2ccccc2)ccc1O [Example 4, 2-Hydroxy-5-(2-phenyl-1-ethenyl)-benzeneacetic acid] | 20000 nM
O=C(O)Cc1cc(C(=O)c2ccc(Cl)cc2)ccc1O [Example 5, 2-Hydroxy-5-(4-chlorobenzoyl)-benzeneacetic acid] | 600 nM
N#Cc1ccc(C(=O)c2ccc(O)c(CC(=O)O)c2)cc1 [Example 6, 5-(4-Cyanobenzoyl)-2-hydroxy-benzeneacetic acid] | 740 nM
O=C(O)Cc1cc(C(=O)c2ccc(C(=O)O)cc2)ccc1O [Example 7, 2-Hydroxy-5-(4-carboxybenzoyl)-benzeneacetic acid] | 1300 nM
O=C(O)Cc1cc(C(=O)c2ccccc2)cc(Br)c1O [Example 9, 5-Benzoyl-3-bromo-2-hydroxy-benzeneacetic acid] | 42000 nM
O=C(O)Cc1cc(C(=O)c2ccccc2F)ccc1O [Example 10, 5-(2-Fluorobenzoyl)-2-hydroxy-benzeneacetic acid] | 740 nM
O=C(O)Cc1cc(C(=O)c2ccc(Cl)cc2Cl)ccc1O [Example 11, 5-(2,4-Dichlorobenzoyl)-2-hydroxy-benzeneacetic acid] | 210 nM
O=C(O)Cc1cc(C(=O)c2cccc(F)c2)ccc1O [Example 12, 5-(3-Fluorobenzoyl)-2-hydroxy-benzeneacetic acid] | 1300 nM
O=C(O)Cc1cc(C(=O)Cc2ccccc2)ccc1O [Example 14, 5-(2-Phenylacetyl)-2-hydroxy-benzeneacetic acid] | 56000 nM
O=C(O)Cc1cc(C(=O)Cc2ccc(C(=O)O)cc2)ccc1O [Example 15, 2-Hydroxy-5-(2-(4-carboxyphenyl)-acetyl)-benzeneacetic acid] | 1700 nM
O=C(O)Cc1cc(C(=O)C=Cc2ccccc2)ccc1O [Example 16, 5-(3-Phenyl-1-oxo-2-propenyl)-2-hydroxy-benzeneacetic acid] | 12000 nM
O=C(O)Cc1cc(C(=O)C=Cc2ccc(C(=O)O)cc2)ccc1O [Example 17, 2-Hydroxy-5-(3-(4-carboxyphenyl)-1-oxo-2-propenyl)benzeneacetic acid] | 1400 nM
O=C(O)Cc1cc(C(=O)c2cccc(C(=O)O)c2)ccc1O [Example 18, 2-Hydroxy-5-(3-carboxybenzoyl)-benzeneacetic acid] | 6000 nM
COC(=O)Cc1cc(C(=O)c2ccc(F)cc2)ccc1O [Example 20, Methyl-5-(4-fluorobenzoyl)-2-hydroxy-benzeneacetate] | 4900 nM
O=C(O)Cc1cc(C(=O)c2ccc(F)cc2)ccc1O [Example 21, 5-(4-Fluorobenzoyl)-2-hydroxy-benzeneacetic acid] | 580 nM
O=C(O)Cc1cc(C(=O)c2c(F)cccc2F)ccc1O [Example 25, 5-(2,6-Difluorobenzoyl)-2-hydroxy-benzeneacetic acid] | 380 nM
CC(C)c1ccc(C=CC(=O)c2ccc(O)c(CC(=O)O)c2)cc1 [Example 29, 5-(3-(4-(1-Methyl-ethyl)-phenyl)-1-oxo-2-propenyl)-2-hydroxy-benzeneacetic acid] | 1300 nM
COc1ccc(C=CC(=O)c2ccc(O)c(CC(=O)O)c2)cc1 [Example 30, 5-(3-(4-Methoxyphenyl)-1-oxo-2-propenyl)-2-hydroxybenzeneacetic acid] | 1900 nM
CC(=O)c1ccc(C(=O)c2ccc(O)c(CC(=O)O)c2)cc1 [Example 32, 5-(4-Acetylbenzoyl)-2-hydroxy-benzeneacetic acid] | 630 nM
O=C(O)Cc1cc(C=Cc2ccc(C(=O)O)cc2)ccc1O [Example 33, 2-Hydroxy-5-(2-(4-carboxyphenyl)-1-ethenyl)-benzeneacetic acid] | 400 nM
